Experimental data taken from patent publication US6737383B1, “Herbicidal oxadiazolidines” (priority 1999, dated 2004).

Tests used:
bedstraw = experiment: Test B pre/postemergence bedstraw; assay type: in vivo, Galium aparine; conditions: Rate 62 g/ha, Postemergence; scale of 0 to 10 where 0 is no effect and 10 is complete control
Outline: (§1)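 Response is a visual 0-to-10 score relative to untreated plants, where 0 means no effect and 10 means complete control, taken twelve to sixteen days after application. Treatments went onto soil at planting and onto foliage of 1- to 4-leaf plants, using a surfactant-containing non-phytotoxic solvent.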

blackgrass = experiment: Test B pre/postemergence blackgrass; assay type: in vivo, Alopecurus myosuroides
Description: (§2) Seeds of bedstraw (Galium aparine), blackgrass (Alopecurus myosuroides), surinam grass (Brachiaria decumbens), cocklebur (Xanthium strumarium), corn (Zea mays), crabgrass (Digitaria sanguinalis), giant foxtail (Setaria faberii), morningglory (Ipomoea hederacea), pigweed (Amaranthus retroflexus), rape (Brassica napus), soybean (Glycine max), sugar beet (Beta vulgaris), velvetleaf (Abutilon theophrasti), wheat (Triticum aestivum), wild oat (Avena fatua) and purple nutsedge (Cyperus rotundus) tubers were planted and treated preemnergence with test chemicals formulated in a non-phytotoxic solvent mixture which included a surfactant.
(§3) At the same time, these crop and weed species were also treated with postemergence applications of test chemicals formulated in the same manner. Plants ranged in height from 2 to 18 cm (1- to 4-leaf stage) for postemergence treatments. Plant species in the flood test consisted of rice (Oryza sativa), smallflower flatsedge (Cyperus difformis), duck salad (Heteranthera limosa) and bamyardgrass (Echinochloa crus-galli) grown to the 2-leaf stage for testing. Treated plants and controls were maintained in a greenhouse for twelve to sixteen days, after which all species were compared to controls and visually evaluated. Plant response ratings, summarized in Table B, are based on a scale of 0 to 10 where 0 is no effect and 10 is complete control. A dash (−) response means no test result.

surinam grass = experiment: Test B pre/postemergence surinam grass; assay type: in vivo, Brachiaria decumbens
Description: as §2, §3

cocklebur = experiment: Test B pre/postemergence cocklebur; assay type: in vivo, Xanthium strumarium
Outline: as §1

corn = experiment: Test B pre/postemergence corn; assay type: in vivo, Zea mays
Description: as §2, §3

crabgrass = experiment: Test B pre/postemergence crabgrass; assay type: in vivo, Digitaria sanguinalis
Description: as §2, §3

giant foxtail = experiment: Test B pre/postemergence giant foxtail; assay type: in vivo, Setaria faberii
Outline: as §1

morningglory = experiment: Test B pre/postemergence morningglory; assay type: in vivo, Ipomoea hederacea
Description: as §2, §3

pigweed = experiment: Test B pre/postemergence pigweed; assay type: in vivo, Amaranthus retroflexus
Description: as §2, §3

rape = experiment: Test B pre/postemergence rape; assay type: in vivo, Brassica napus
Description: as §2, §3

soybean = experiment: Test B pre/postemergence soybean; assay type: in vivo, Glycine max
Outline: as §1

sugar beet = experiment: Test B pre/postemergence sugar beet; assay type: in vivo, Beta vulgaris
Outline: as §1

velvetleaf = experiment: Test B pre/postemergence velvetleaf; assay type: in vivo, Abutilon theophrasti
Outline: as §1

wheat = experiment: Test B pre/postemergence wheat; assay type: in vivo, Triticum aestivum
Description: as §2, §3

wild oat = experiment: Test B pre/postemergence wild oat; assay type: in vivo, Avena fatua
Outline: as §1

purple nutsedge = experiment: Test B pre/postemergence purple nutsedge; assay type: in vivo, Cyperus rotundus
Description: as §2, §3

[1] = Preemergence, Rate 62 g/ha, scale of 0 to 10 where 0 is no effect and 10 is complete control
[2] = Preemergence, Rate 250 g/ha, scale of 0 to 10 where 0 is no effect and 10 is complete control
[3] = Preemergence, Rate 500 g/ha, scale of 0 to 10 where 0 is no effect and 10 is complete control
[4] = Rate 62 g/ha, Postemergence, scale of 0 to 10 where 0 is no effect and 10 is complete control
[5] = Rate 125 g/ha, Postemergence, scale 0 to 10
[6] = Rate 125 g/ha, Preemergence, scale of 0 to 10 where 0 is no effect and 10 is complete control
[7] = Rate 500 g/ha, Postemergence, scale 0 to 10, 0 no effect, 10 complete control

## CC(C)N(C(=O)n1oc(=O)n(COCc2ccccc2)c1=O)c1ccc(F)cc1 [Compound 261]
bedstraw
  Bedstraw plant response rating: 0
blackgrass; [1]
  Blackgrass plant response rating: 0
blackgrass; [2]
  Blackgrass plant response rating: 1
blackgrass; [3]
  Plant response rating, Blackgrass: 4
blackgrass; [4]
  Blackgrass plant response rating: 0
blackgrass; [5]
  Blackgrass plant response rating: 0
blackgrass; [6]
  Blackgrass plant response rating: 0
blackgrass; Rate 250 g/ha, Postemergence
  Plant response rating (0 to 10; 0 is no effect, 10 is complete control), Blackgrass: 0
blackgrass; [7]
  Blackgrass plant response rating: 5
Surinam grass; [1]
  B. signalgrass plant response rating: 0
Surinam grass; [2]
  B. signalgrass plant response rating: 0
Surinam grass; [3]
  Plant response rating, B. signalgrass: 3
Surinam grass; [4]
  B. signalgrass plant response rating: 0
Surinam grass; Rate 125 g/ha, Postemergence, scale 0 (no effect) to 10 (complete control)
  B. signalgrass plant response rating: 0
Surinam grass; [6]
  B. signalgrass plant response rating: 0
Surinam grass; Rate 250 g/ha, Postemergence
  Plant response rating (0 to 10; 0 is no effect, 10 is complete control), B. signalgrass: 0
Surinam grass; [7]
  B. signalgrass plant response rating: 0
cocklebur; [1]
  Cocklebur plant response rating: 0
cocklebur; [2]
  Cocklebur plant response rating: 0
cocklebur; [3]
  Plant response rating, Cocklebur: 0
cocklebur; [4]
  Cocklebur plant response rating: 0
cocklebur; [5]
  Cocklebur plant response rating: 0
cocklebur; [6]
  Cocklebur plant response rating: 0
cocklebur; Rate 250 g/ha, Postemergence
  Plant response rating (0 to 10; 0 is no effect, 10 is complete control), Cocklebur: 0
cocklebur; [7]
  Cocklebur plant response rating: 1
corn; [1]
  Corn plant response rating: 0
corn; [2]
  Corn plant response rating: 0
corn; [3]
  Plant response rating, Corn: 0
corn; [4]
  Corn plant response rating: 0
corn; [5]
  Corn plant response rating: 0
corn; [6]
  Corn plant response rating: 0
corn; Rate 250 g/ha, Postemergence
  Plant response rating (0 to 10; 0 is no effect, 10 is complete control), Corn: 0
corn; [7]
  Corn plant response rating: 0
crabgrass; [1]
  Crabgrass plant response rating: 2
crabgrass; [2]
  Crabgrass plant response rating: 5
crabgrass; [3]
  Plant response rating, Crabgrass: 5
crabgrass; [6]
  Crabgrass plant response rating: 3
crabgrass; Rate 250 g/ha, Postemergence
  Plant response rating (0 to 10; 0 is no effect, 10 is complete control), Crabgrass: 0
crabgrass; [7]
  Crabgrass plant response rating: 0
Giant foxtail; [1]
  Giant foxtail plant response rating: 8
Giant foxtail; [2]
  Giant foxtail plant response rating: 9
Giant foxtail; [3]
  Plant response rating, Giant foxtail: 9
Giant foxtail; [6]
  Giant foxtail plant response rating: 8
Giant foxtail; Rate 250 g/ha, Postemergence
  Plant response rating (0 to 10; 0 is no effect, 10 is complete control), Giant foxtail: 0
Giant foxtail; [7]
  Giant foxtail plant response rating: 0
morningglory; [1]
  Morningglory plant response rating: 0
morningglory; [2]
  Morningglory plant response rating: 0
morningglory; [3]
  Plant response rating, Morningglory: 0
morningglory; [6]
  Morningglory plant response rating: 0
morningglory; Rate 250 g/ha, Postemergence
  Plant response rating (0 to 10; 0 is no effect, 10 is complete control), Morningglory: 6
morningglory; [7]
  Morningglory plant response rating: 6
pigweed; [1]
  Redroot pigweed plant response rating: 0
pigweed; [2]
  Redroot pigweed plant response rating: 0
pigweed; [3]
  Plant response rating, Redroot pigweed: 0
pigweed; [6]
  Redroot pigweed plant response rating: 0
pigweed; Rate 250 g/ha, Postemergence
  Plant response rating (0 to 10; 0 is no effect, 10 is complete control), Redroot pigweed: 1
pigweed; [7]
  Redroot pigweed plant response rating: 2
rape; [1]
  Rape plant response rating: 0
rape; [2]
  Rape plant response rating: 0
rape; [3]
  Plant response rating, Rape: 0
rape; [6]
  Rape plant response rating: 0
rape; Rate 250 g/ha, Postemergence
  Plant response rating (0 to 10; 0 is no effect, 10 is complete control), Rape: 0
rape; [7]
  Rape plant response rating: 0
soybean; [1]
  Soybean plant response rating: 0
soybean; [2]
  Soybean plant response rating: 0
soybean; [3]
  Plant response rating, Soybean: 0
soybean; [6]
  Soybean plant response rating: 0
soybean; [7]
  Soybean plant response rating: 4
Sugar beet; [1]
  Sugarbeets plant response rating: 0
Sugar beet; [2]
  Sugarbeets plant response rating: 0
Sugar beet; [3]
  Plant response rating, Sugarbeets: 0
Sugar beet; [6]
  Sugarbeets plant response rating: 0
Sugar beet; [7]
  Sugarbeets plant response rating: 0
velvetleaf; [1]
  Velvetleaf plant response rating: 0
velvetleaf; [2]
  Velvetleaf plant response rating: 0
velvetleaf; [3]
  Plant response rating, Velvetleaf: 0
velvetleaf; [6]
  Velvetleaf plant response rating: 0
velvetleaf; [7]
  Velvetleaf plant response rating: 1
wheat; [1]
  Wheat plant response rating: 0
wheat; [2]
  Wheat plant response rating: 0
wheat; [3]
  Plant response rating, Wheat: 0
wheat; [6]
  Wheat plant response rating: 0
wheat; [7]
  Wheat plant response rating: 2
Wild oat; [1]
  Wild oats plant response rating: 0
Wild oat; [2]
  Wild oats plant response rating: 0
Wild oat; [3]
  Plant response rating, Wild oats: 0
Wild oat; [6]
  Wild oats plant response rating: 0
Wild oat; [7]
  Wild oats plant response rating: 0
Purple nutsedge; [2]
  Nutsedge plant response rating: 0
Purple nutsedge; [3]
  Plant response rating, Nutsedge: 0
Purple nutsedge; [6]
  Nutsedge plant response rating: 0
Purple nutsedge; Rate 250 g/ha, Postemergence
  Plant response rating (0 to 10; 0 is no effect, 10 is complete control), Nutsedge: 0
Purple nutsedge; [7]
  Nutsedge plant response rating: 0
